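In this assay, cells in 96-well plates receive the compound at five concentrations for 48 hours. Endpoints are linearly interpolated between the surrounding concentrations. GI50: concentration for 50% inhibition of growth. The concentration for full growth arrest is given as TGI.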

Among the test systems are 786-0 renal; A498 renal; COLO 205 colon; HL-60(TB) leukemia; MOLT-4 leukemia; NCI-H226 lung; NCI-H460 lung; NCI/ADR-RES ovarian; RXF 393 renal; UACC-257 melanoma.
Assay in all cases: NCI anticancer screen, dose series, 48 h

Turning to `C#CCSC(C=C=C)P(=O)(OC(C)C)OC(C)C` (stereo not given), the TGI in the experiment with 786-0 renal was above 100 µM; with A498 renal, above 100 µM; in the experiment on COLO 205 colon, above 100 µM; in the experiment on HL-60(TB) leukemia, above 100 µM; with MOLT-4 leukemia, 65.2 µM; with NCI-H226 lung it was above 100 µM. Further, the TGI in the experiment on NCI-H460 lung, in the experiment on NCI/ADR-RES ovarian, in the experiment on RXF 393 renal and in the experiment on UACC-257 melanoma was above 100 µM in each case.

`CN1CCN(CCCBr)CC1`: the TGI in the experiment with 786-0 renal, with A498 renal, in the experiment on COLO 205 colon, with HL-60(TB) leukemia, in the experiment on NCI-H226 lung and with NCI-H460 lung was above 100 µM throughout. The TGI in the experiment with NCI/ADR-RES ovarian, in the experiment with RXF 393 renal and with UACC-257 melanoma was above 100 µM each time.

`CN(C)c1nc2oc(-c3ccccc3)c(-c3ccccc3)c2c2nnnn12`: the TGI with 786-0 renal was above 100 µM; in the experiment on A498 renal, above 100 µM; in the experiment with COLO 205 colon, above 100 µM; in the experiment on HL-60(TB) leukemia, 96.2 µM; in the experiment on MOLT-4 leukemia, above 100 µM; in the experiment with NCI-H226 lung, above 100 µM. Further, the TGI with NCI/ADR-RES ovarian, with RXF 393 renal and with UACC-257 melanoma was above 100 µM throughout.

As to `COc1ccc(C(=O)/C=C/c2c(Cl)c3c(c(OC)c2Cl)OCC(=O)N3)cc1`, the GI50 was 3.07 µM in the experiment on A498 renal; 2.49 µM with HL-60(TB) leukemia; 2.71 µM in the experiment with MOLT-4 leukemia; 7.08 µM with NCI-H226 lung; 2.62 µM in the experiment on NCI/ADR-RES ovarian; 1.79 µM in the experiment on RXF 393 renal. Besides, the GI50 in the experiment on UACC-257 melanoma was 2.98 µM. The TGI in the experiment on A498 renal was 37.2 µM; in the experiment with HL-60(TB) leukemia, 10.6 µM; in the experiment on MOLT-4 leukemia, 9.75 µM; in the experiment with NCI-H226 lung, above 100 µM; in the experiment with NCI/ADR-RES ovarian, 7.08 µM; in the experiment with RXF 393 renal, 3.54 µM. Also, the TGI in the experiment with UACC-257 melanoma is above 100 µM.

For the molecule `NNC(=O)Cn1c2ccc(Br)cc2c2nc3ccccc3nc21`, the TGI in the experiment with 786-0 renal, in the experiment with A498 renal, with COLO 205 colon, in the experiment on MOLT-4 leukemia, in the experiment with NCI-H226 lung and in the experiment on NCI/ADR-RES ovarian was above 100 µM throughout. Also, the TGI in the experiment with RXF 393 renal and in the experiment on UACC-257 melanoma was above 100 µM each time.

As for `Cc1cc(N2CCCC2)nc(N(CCNc2ccnc3cc(Cl)ccc23)Cc2ccco2)n1`, the GI50 in the experiment with A498 renal is 1.92 µM; with COLO 205 colon, 1.8 µM; with NCI-H226 lung, 3.2 µM; with NCI-H460 lung, 2.99 µM; in the experiment with NCI/ADR-RES ovarian it was 2.99 µM; in the experiment on RXF 393 renal, 2.14 µM. Moreover, the GI50 in the experiment with UACC-257 melanoma was 10.8 µM. For the same molecule, the TGI in the experiment with A498 renal was 7.79 µM; in the experiment with COLO 205 colon, 4.38 µM; with NCI-H226 lung, above 100 µM; in the experiment with NCI-H460 lung, above 100 µM; in the experiment on NCI/ADR-RES ovarian it was 79.6 µM; in the experiment on RXF 393 renal, 6.74 µM. Besides, the TGI with UACC-257 melanoma was above 100 µM.

For the molecule `c1cn(C23C4C5C6C4C2C6C53)cn1` (stereo not given), the TGI in the experiment with 786-0 renal, in the experiment with A498 renal, in the experiment with COLO 205 colon, in the experiment on HL-60(TB) leukemia, in the experiment on MOLT-4 leukemia and with NCI-H226 lung was above 100 µM each time. The TGI with NCI-H460 lung, in the experiment with NCI/ADR-RES ovarian and with UACC-257 melanoma was above 100 µM throughout.

Consider `CC(=O)Oc1c2oc3ccc(Cl)cc3c(=O)c2c(O)c2ccsc12`, for which the TGI in the experiment on 786-0 renal, in the experiment on A498 renal, in the experiment on COLO 205 colon, in the experiment on HL-60(TB) leukemia, in the experiment on NCI-H226 lung and in the experiment on NCI-H460 lung was above 100 µM each time. In addition, the TGI in the experiment on NCI/ADR-RES ovarian, with RXF 393 renal and in the experiment on UACC-257 melanoma was above 100 µM throughout.

Regarding `COc1ccc(-n2c(=O)n(C)c(=O)n2-c2ccc(OC)cc2)cc1`, the TGI with 786-0 renal, with A498 renal, in the experiment on COLO 205 colon, in the experiment with HL-60(TB) leukemia, in the experiment on MOLT-4 leukemia and in the experiment with NCI-H226 lung was above 100 µM each time. The TGI in the experiment on NCI-H460 lung, in the experiment with NCI/ADR-RES ovarian and in the experiment with UACC-257 melanoma was above 100 µM in each case.

As to `Oc1c([Si](c2ccccc2)(c2ccccc2)c2ccccc2)cc2ccccc2c1-c1c(O)c([Si](c2ccccc2)(c2ccccc2)c2ccccc2)cc2ccccc12`, the TGI with 786-0 renal, with A498 renal, with COLO 205 colon, in the experiment on HL-60(TB) leukemia, in the experiment on MOLT-4 leukemia and with NCI-H460 lung was above 100 µM in each case. The TGI with NCI/ADR-RES ovarian, in the experiment with RXF 393 renal and in the experiment on UACC-257 melanoma was above 100 µM throughout.

Regarding `O=C1c2cc3c(cc2CC12Cc1ccc4c(c1C2=O)CCCC4)CCCC3` (stereo not given), the TGI in the experiment on 786-0 renal was 46.1 µM; in the experiment with A498 renal, 59.7 µM; in the experiment with HL-60(TB) leukemia, above 100 µM; in the experiment on MOLT-4 leukemia it was above 100 µM; in the experiment with NCI-H460 lung, above 100 µM; in the experiment on NCI/ADR-RES ovarian, above 100 µM. The TGI with RXF 393 renal and in the experiment on UACC-257 melanoma was above 100 µM each time.

`COC1OC2COC1(OC)C1OC(C)(C)OC21` (stereo not given): the TGI with 786-0 renal, in the experiment with A498 renal, in the experiment with COLO 205 colon, with MOLT-4 leukemia, in the experiment with NCI-H226 lung and in the experiment on NCI-H460 lung was above 100 µM throughout. The TGI in the experiment on NCI/ADR-RES ovarian, with RXF 393 renal and in the experiment on UACC-257 melanoma was above 100 µM throughout.

Turning to `CCCCCC(C)SC1(C(=O)OC)CC(OC(C)=O)C(NC(C)=O)C([C@H](OC(C)=O)[C@@H](COC(C)=O)OC(C)=O)O1` (stereo not given in full), the TGI in the experiment with 786-0 renal, in the experiment on A498 renal, with HL-60(TB) leukemia, in the experiment with MOLT-4 leukemia, in the experiment with NCI-H226 lung and in the experiment on NCI-H460 lung was above 100 µM each time. For the same molecule, the TGI with NCI/ADR-RES ovarian, with RXF 393 renal and with UACC-257 melanoma was above 100 µM in each case.

For `CC1=NN(c2nc(N)nc(/C(C#N)=C/c3cccn3-c3cc(Cl)cc(Cl)c3)n2)C(C)(C)C1`, the TGI in the experiment with 786-0 renal, with A498 renal, with COLO 205 colon, in the experiment with HL-60(TB) leukemia, in the experiment with NCI-H226 lung and with NCI-H460 lung was above 100 µM throughout. Further, the TGI in the experiment on NCI/ADR-RES ovarian, in the experiment on RXF 393 renal and in the experiment on UACC-257 melanoma was above 100 µM throughout.

The values above are taken from PubChem BioAssay (NCI).
